The Ki is a measure of affinity in units of concentration, obtained from inhibition or displacement.

In one experiment the target is T1, CPB2.8ΔCTE (Leishmania mexicana, UniProt P36400).
T1 construct: Wild-type recombinant CPB without the C-terminal extention (i.e. CPB2.8ΔCTE); Dr. Jeremy Mottram (Wellcome Centre for Molecular Parasitology, University of Glasgow)
Put plainly: Leishmania mexicana cysteine protease B (CPB) peptidase activity assay (Ki). Type of experiment: biochemical. As to conditions: Ki, inhibitors of Leismania mexicana CPB protease. The procedure, abridged:
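Recombinant CPB2.8ΔCTE (0.25 nM) was assayed in 100 mM sodium acetate pH 5.5 with 1 mM EDTA, 200 mM NaCl and 10 mM DTT at 25 °C, DMSO <1%, enzyme added to start. Rates were taken from continuous fluorescence slopes; apparent Ki was fitted assuming reversible, pure-competitive inhibition.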

In another experiment the target is Wild-type cruzipain (Trypanosoma cruzi, UniProt P25779). Put plainly: Trypanosoma cruzi cruzipain peptidase activity assay (Ki). Type of experiment: biochemical. As to conditions: read-out: Ki, inhibitors of cruzain and cruzipains. Put shortly:
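Native cruzipain from T. cruzi Dm28 epimastigotes, 2.5 nM, in 100 mM sodium phosphate pH 6.75 with 1 mM EDTA and 10 mM L-cysteine, 25 °C, DMSO <1%. Rates taken from continuous fluorogenic substrate read; Ki by regression assuming reversible pure-competitive inhibition.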

T1 sequence (P36400 126-343, stated change not applied): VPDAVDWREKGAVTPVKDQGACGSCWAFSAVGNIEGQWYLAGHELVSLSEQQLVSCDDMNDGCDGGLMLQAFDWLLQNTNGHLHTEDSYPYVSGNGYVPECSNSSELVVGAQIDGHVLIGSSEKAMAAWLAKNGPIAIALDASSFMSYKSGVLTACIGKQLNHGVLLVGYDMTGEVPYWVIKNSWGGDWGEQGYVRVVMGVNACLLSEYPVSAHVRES
Sequence of Wild-type cruzipain (P25779 whole entry): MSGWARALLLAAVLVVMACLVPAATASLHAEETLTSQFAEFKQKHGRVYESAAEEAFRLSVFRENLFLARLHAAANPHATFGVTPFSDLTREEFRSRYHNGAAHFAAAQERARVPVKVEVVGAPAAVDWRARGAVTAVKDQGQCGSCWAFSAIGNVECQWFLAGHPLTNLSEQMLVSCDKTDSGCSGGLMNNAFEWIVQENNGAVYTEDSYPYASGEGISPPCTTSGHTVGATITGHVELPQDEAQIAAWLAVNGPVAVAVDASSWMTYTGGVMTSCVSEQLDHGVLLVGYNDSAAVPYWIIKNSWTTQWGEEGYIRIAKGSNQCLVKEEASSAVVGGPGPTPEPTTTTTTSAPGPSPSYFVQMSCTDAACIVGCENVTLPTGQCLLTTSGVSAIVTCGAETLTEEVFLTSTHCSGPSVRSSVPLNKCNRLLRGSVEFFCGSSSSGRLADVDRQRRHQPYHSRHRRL

Regarding `CC(C)C[C@H](NC(=O)c1ccc(N(C)C)cc1)C(=O)N1CC[C@@H]2[C@H]1C(=O)CN2C(=O)C1CC=CCC1` (stereo partly drawn) [Example 138, (3aR,6aS)-N-{(1S)-1-[4-(Cyclohex-3-enecarbonyl)-6-oxo-hexahydro-pyrrolo[3,2-b]pyrrole-1-carbonyl]-3-methyl-butyl}-4-dimethylamino-benzamide], the inhibition constant (Ki) on CPB2.8ΔCTE and at Wild-type cruzipain was under 5 µM in each case.
For `CC(C)C[C@H](NC(=O)c1ccc(N(C)C)cc1)C(=O)N1CC[C@@H]2[C@H]1C(=O)CN2C(=O)[C@@H](N)CC(C)(C)C` [Example 212, (3aR,6aS)-N-{(1S)-1-[4-((2S)-2-Amino-4,4-dimethyl-pentanoyl)-6-oxo-hexahydro-pyrrolo[3,2-b]pyrrole-1-carbonyl]-3-methyl-butyl}-4-dimethylamino-benzamide], the Ki on CPB2.8ΔCTE and at Wild-type cruzipain was under 5 µM in each case.
As for `CC(C)C[C@H](NC(=O)c1ccc(N(C)C)cc1)C(=O)N1CC[C@@H]2[C@H]1C(=O)CN2C(=O)c1ccoc1` [Example 97, (3aR,6aS)-4-Dimethylamino-N-{(1S)-1-[4-(furan-3-carbonyl)-6-oxo-hexahydro-pyrrolo[3,2-b]pyrrole-1-carbonyl]-3-methyl-butyl}-benzamide], the Ki on CPB2.8ΔCTE and at Wild-type cruzipain was under 5 µM throughout.
On to `CC(C)C[C@H](NC(=O)c1ccc(N(C)C)cc1)C(=O)N1CC[C@@H]2[C@H]1C(=O)CN2C(=O)c1cc2ccccc2o1` [Example 101, (3aR,6aS)-N-{(1S)-1-[4-(Benzofuran-2-carbonyl)-6-oxo-hexahydro-pyrrolo[3,2-b]pyrrole-1-carbonyl]-3-methyl-butyl}-4-dimethylamino-benzamide], for which the inhibitory constant (Ki) at CPB2.8ΔCTE and at Wild-type cruzipain was under 5 µM throughout.
As to `CC(C)C[C@H](NC(=O)c1ccc(N(C)C)cc1)C(=O)N1CC[C@@H]2[C@H]1C(=O)CN2C(=O)N1CCCC1` [Example 235, (3aR,6aS)-4-Dimethylamino-N-{(1S)-3-methyl-1-[6-oxo-4-(pyrrolidine-1-carbonyl)-hexahydro-pyrrolo[3,2-b]pyrrole-1-carbonyl]-butyl}-benzamide], the Ki on CPB2.8ΔCTE and on Wild-type cruzipain was under 5 µM in each case.
Consider `CC(C)C[C@H](NC(=O)c1ccc(N(C)C)cc1)C(=O)N1CC[C@@H]2[C@H]1C(=O)CN2C(=O)[C@@H](O)CC(C)C` [Example 233, (3aR,6aS)-4-Dimethylamino-N-{(1S)-1-[4-((2S)2-hydroxy-4 methyl-pentanoyl)-6-oxo-hexahydro-pyrrolo[3,2-b]pyrrole-1-carbonyl]-3-methyl-butyl}-benzamide], for which the Ki at CPB2.8ΔCTE and at Wild-type cruzipain was under 5 µM each time.
As to `CC(C)C[C@H](NC(=O)c1ccc(C(C)(C)C)cc1)C(=O)N1CC[C@@H]2[C@H]1C(=O)CN2C(=O)c1ccncc1` [Example 6, (3aR,6aS)-4-tert-Butyl-N-{(1S)-3-methyl-1-[6-oxo-4-(pyridine-4-carbonyl)-hexahydro-pyrrolo[3,2-b]pyrrole-1-carbonyl]-butyl}-benzamide], the inhibition constant Ki on CPB2.8ΔCTE and on Wild-type cruzipain was under 5 µM each time.
Take `NCc1cccc(C(=O)N[C@@H](Cc2ccc(O)cc2)C(=O)N2CC[C@@H]3[C@H]2C(=O)CN3C(=O)c2ccccc2)c1` [Example 319, (3aR,6aS)-3-Aminomethyl-N-[(1S)-2-(4-benzoyl-6-oxo-hexahydro-pyrrolo[3,2-b]pyrrole-1-yl)-1-(4-hydroxy-benzyl)-2-oxo-ethyl]-benzamide]: the Ki on CPB2.8ΔCTE and on Wild-type cruzipain was under 5 µM throughout.
Regarding `CCCCCCC(=O)N1CC(=O)[C@@H]2[C@H]1CCN2C(=O)[C@H](CC(C)C)NC(=O)c1ccc(N(C)C)cc1` [Example 136, (3aR,6aS)-4-Dimethylamino-N-[(1S)-1-(4-heptanoyl-6-oxo-hexahydro-pyrrolo[3,2-b]pyrrole-1-carbonyl)-3-methyl-butyl]-benzamide], the Ki on CPB2.8ΔCTE and on Wild-type cruzipain was under 5 µM throughout.
In the case of `CC(C)CC(=O)N1CC(=O)[C@@H]2[C@H]1CCN2C(=O)[C@H](CC(C)C)NC(=O)c1ccc(N(C)C)cc1` [Example 130, (3aR,6aS)-4-Dimethylamino-N-{(1S)-3-methyl-1-[4-(3-methyl-butyryl)-6-oxo-hexahydro-pyrrolo[3,2-b]pyrrole-1-carbonyl]-butyl}-benzamide], the inhibition constant Ki on CPB2.8ΔCTE and on Wild-type cruzipain was under 5 µM throughout.
`NCc1cccc(C(=O)N[C@@H](Cc2ccc(O)cc2)C(=O)N2CC[C@@H]3[C@H]2C(=O)CN3C(=O)c2csc3ccccc23)c1` [Example 331, (3aR,6aS)-3-Aminomethyl-N-[(1S)-2-[4-(benzo[b]thiophene-3-carbonyl)-6-oxo-hexahydro-pyrrolo[3,2-b]pyrrole-1-yl]-1-(4-hydroxy-benzyl)-2-oxo-ethyl]-benzamide]: the Ki on CPB2.8ΔCTE and at Wild-type cruzipain was under 5 µM throughout.
Consider `CC(C)C[C@H](NC(=O)c1ccc(N(C)C)cc1)C(=O)N1CC[C@@H]2[C@H]1C(=O)CN2C(=O)[C@H](Cc1ccccc1)NC(=O)OCc1ccccc1` [Example 160, (3aS,6aR)-((1S)-1-Benzyl-2-{-[(2S)-2-(4-dimethylamino-benzoylamino)-4-methyl-pentanoyl]-3-oxo-hexahydro-pyrrolo[3,2-b]pyrrole-1-yl}-2-oxo-ethyl)-carbamic acid benzyl ester], for which the inhibition constant (Ki) at CPB2.8ΔCTE and at Wild-type cruzipain was under 5 µM each time.
For the compound `CC(C)C[C@H](NC(=O)c1ccc(N(C)C)cc1)C(=O)N1CC[C@@H]2[C@H]1C(=O)CN2C(=O)c1ccc(N)cc1` [Example 50, (3aR,6aS)-N-{(1S)-1-[4-(4-Amino-benzoyl)-6-oxo-hexahydro-pyrrolo[3,2-b]pyrrole-1-carbonyl]-3-methyl-butyl}-4-dimethylamino-benzamide], the inhibition constant (Ki) at CPB2.8ΔCTE and on Wild-type cruzipain was under 5 µM in each case.
With `CC(C)C[C@H](NC(=O)c1ccc(N(C)C)cc1)C(=O)N1CC[C@@H]2[C@H]1C(=O)CN2C(=O)[C@@H](N)CC(C)C` [Example 150, (3aR,6aS)-N-{(1S)-1-[4-((2S)-2-Amino-4-methyl-pentanoyl)-6-oxo-hexahydro-pyrrolo[3,2-b]pyrrole-1-carbonyl]-3-methyl-butyl}-4-dimethylamino-benzamide], the Ki on CPB2.8ΔCTE and at Wild-type cruzipain was under 5 µM throughout.
For the compound `CC(C)C[C@H](NC(=O)c1ccc(C(C)(C)C)cc1)C(=O)N1CC[C@@H]2[C@H]1C(=O)CN2C(=O)c1ccc(-n2cncn2)cc1` [Example 26, (3aR,6aS)-4-tert-Butyl-N-{(1S)-3-methyl-1-[6-oxo-4-(4-[1,2,4]triazol-1-yl-benzoyl)-hexahydro-pyrrolo[3,2-b]pyrrole-1-carbonyl]-butyl}-benzamide], the inhibition constant (Ki) at CPB2.8ΔCTE and at Wild-type cruzipain was under 5 µM throughout.
Take `COc1ccc(C(=O)N2CC(=O)[C@@H]3[C@H]2CCN3C(=O)[C@H](CC(C)C)NC(=O)c2ccc(N(C)C)cc2)cc1` [Example 66, (3aR,6aS)-4-Dimethylamino-N-{(1S)-1-[4-(4-methoxy-benzoyl)-6-oxo-hexahydro-pyrrolo[3,2-b]pyrrole-1-carbonyl]-3-methyl-butyl}-benzamide]: the Ki at CPB2.8ΔCTE and at Wild-type cruzipain was under 5 µM throughout.
Turning to `CC(C)C[C@H](NC(=O)c1ccc(N(C)C)cc1)C(=O)N1CC[C@@H]2[C@H]1C(=O)CN2C(=O)C1CCCC1` [Example 134, (3aR,6aS)-N-[(1S)-1-(4-Cyclopentanecarbonyl-6-oxo-hexahydro-pyrrolo[3,2-b]pyrrole-1-carbonyl)-3-methyl-butyl]-4-dimethylamino-benzamide], the Ki at CPB2.8ΔCTE and on Wild-type cruzipain was under 5 µM throughout.
`CS(=O)(=O)c1ccccc1C(=O)N1CC(=O)[C@@H]2[C@H]1CCN2C(=O)[C@H](Cc1ccc(O)cc1)NC(=O)c1cccc(CN)c1` [Example 332, (3aR,6aS)-3-Aminomethyl-N-{(1S)-1-(4-hydroxy-benzyl)-2-[4-(2-methanesulfonyl-benzoyl)-6-oxo-hexahydro-pyrrolo[3,2-b]pyrrole-1-yl]-2-oxo-ethyl}-benzamide]: the Ki on CPB2.8ΔCTE and on Wild-type cruzipain was under 5 µM throughout.
Consider `CC(C)C[C@H](NC(=O)c1ccc(N(C)C)cc1)C(=O)N1CC[C@@H]2[C@H]1C(=O)CN2C(=O)CC1CC1` [Example 132, (3aR,6aS)-N-{(1S)-1-[4-(2-Cyclopropyl-acetyl)-6-oxo-hexahydro-pyrrolo[3,2-b]pyrrole-1-carbonyl]-3-methyl-butyl}-4-dimethylamino-benzamide], for which the inhibition constant Ki on CPB2.8ΔCTE and on Wild-type cruzipain was under 5 µM each time.
